One compound from patent publication US20100021379A1, “Chemical Antibodies for Immunotherapy and Imaging” (The Regents of the University of California, priority 2006, published 2010) can be followed below.

The test system of the experiment is K562 cells transfected with the alpha4 integrin subunit. The following applies: ligand alone.

A word on the pIC50: it is −log10 of the IC50, conventionally taken in molar units.

Molecules are shown by their SMILES. pIC50: −log10 of the molar value.

Protocol: K562 cells express the betal integrin subunit, but not the alpha4 integrin subunit. Staining was quantified by FLOW cytometry, which was performed on a Coulter® XL-MCL™ Flow Cytometer (Beckman Coulter, Inc.; Fullerton, Calif.). Cells were harvested and adjusted to a concentration of 1×10^6 cells/ml in TBS plus 1 mM CaCl2 and MnCl2. Fc-ligand antibody conjugates, Fc fragments, or ligands were then incubated at various concentrations with cells for 1 hour at room temperature. Cells were centrifuged at 1000 RPM for 5 minutes, liquid was aspirated, and cells were resuspended and spun down again. Cells were then incubated with a detecting agent, e.g., 1:1000 streptavidin-PE or 1:500 anti-human Fc-FITC (Sigma-Aldrich Co.) for 1 h at room temperature. Cells were washed two times as described above and then resuspended in PBS at a concentration of 1×10^6 cells/ml. Cellular fluorescence was visualized using a fluorescent microscope.

As for `Cc1ccccc1NC(=O)Nc1ccc(CC(=O)N[C@@H](CCCCNC(=O)/C=C/c2cccnc2)C(=O)N[C@@H](CCCC(=O)O)C(=O)NC2(C(=O)NCCOCCOCCNC(=O)CCC(=O)N[C@@H](Cc3ccc(O)c(O)c3)C(=O)NCCOCCOCCNC(=O)CCC(=O)NCCOCCOCCNC(=O)CCC(=O)N[C@@H](CCCCNC(=O)CCCC[C@@H]3SC[C@@H]4NC(=O)N[C@@H]43)C(N)=O)CCCCC2)cc1` [Ligand 2A-DOPA-Biotin], the pIC50 was 11.70.
